Data reported in patent US20210393642A1, “COMPOSITION FOR PREVENTING OR TREATING SJOGREN'S SYNDROME” (SAMJIN PHARMACEUTICAL CO., LTD., priority 2018, published 2021).

Columns and labels:
IL-2 = assay: Quantitative RT-PCR of mRNA in lacrimal and salivary gland tissues, IL-2; type: in vivo, mice; details: N=6, FIGS. 4a, 4b
TNF-α = assay: Quantitative RT-PCR of mRNA in lacrimal and salivary gland tissues, TNF-α; type: in vivo, mice; details: N=6
CXCR5 = assay: Quantitative RT-PCR of mRNA in lacrimal and salivary gland tissues, CXCR5; type: in vivo, mice; details: N=6
anti-SSA/Ro = assay: Quantification (ELISA) of autoantibody anti-SSA/Ro in plasma; type: in vivo, mice
Text: (§1) As markers of Sjogren's syndrome, anti-SSA/Ro (Signosis, #EA-5202, US) and anti-SSB/La (Signosis, #EA-5204, US), which are autoantibodies based on RNP particles, and interleukin-17A cytokine (Signosis, #EA-2516, US) which is involved in the onset of autoimmune diseases, were quantified by Enzyme-linked ImmunoSorbent Assay (ELISA) in order to determine the secretion and production of these markers in serum.

[1] = test system: disease model of Sjogren's syndrome (Nfkbiz^−/− or IkB-ξ-deficient mice, C57BL/6); assay: Tear production measurement (Schirmer test, phenol red thread); type: in vivo; details: oral, 80 mg/kg b.i.d, 5 weeks; versus control (Ctrl) group; N=11; FIG. 1
Protocol: Hereinafter, experiments for evaluating the anti-inflammatory effect and tissue regeneration effect of oral administration of the composition according to one embodiment of the present invention by using a disease model of Sjogren's syndrome (Nfkbiz^−/− or IkB-ξ-deficient mice, C57BL/6) will be described in detail.
Tear production was measured using a phenol red thread (Zone-Quick; Oasis, Glendora, Calif.) 1 minute after animal anesthesia. One end of the phenol red thread was placed against the lower eyelid of the lateral canthus of the animal eye and left to stand for 60 seconds. After the thread was soaked with tear by the capillary phenomenon, the length (mm) of the thread whose color changed was measured. When the amount of tear secretion decreases, dry eye caused by Sjogren syndrome symptoms is promoted. Thus, it was determined that the greater the amount of tear secretion, the greater the effect of the test substance.

interferon-g = assay: Quantitative RT-PCR of mRNA in lacrimal and salivary gland tissues, interferon-g; type: in vivo, mice; details: N=6
IL-17A [2] = assay: Protein expression in lacrimal and salivary gland tissues (immunoblotting), IL-17A; type: in vivo, mice; details: dose of 100 mg/kg as printed; compared to control group; FIG. 3
Protocol: (§2) The lacrimal gland and salivary gland tissues of the test animals were isolated, placed in PBS, and homogenized on ice. 1 ml of RIPA lysis buffer (50 mM Tris-Cl pH7.4, 150 mM NaCl, 1 mM EDTA, 1% Triton X-100, 0.1% SDS, 1% sodium deoxycholate, 0.5 mM phenylmethylsulfonyl fluoride, 2 μg/ml leupeptin, 2 μg/ml aprotinin, 10 mM NaF, and 1 mM sodium orthovanadate) was added to each homogenized tissue which was then kept on ice for 5 minutes. Each tissue solution was then centrifuged (at 13000 rpm for 20 mins), and only the supernatant was collected, and then protein correction was performed. Samples were incubated with anti-Akt (1:400) and anti-interleukin 17A (1:200) antibodies and subjected to immunoprecipitation (IP) (overnight), followed by sampling. Each of the samples was subjected to SDS-PAGE and transferred to polyvinylidene fluoride (PVDF) membranes. Then, the Akt-IP-samples were incubated with phospho-Akt (S473) (diluted at 1:100,000 in blocking buffer (TBS+Tween20)+0.1% skim milk) at 4° C. overnight, and the IL-17A-IP-samples were incubated with IL-17A primary antibody (diluted at 1:100,000 in blocking buffer (TBS+Tween20)+0.1% skim milk) at 4° C. overnight. Next, the samples were incubated with HRP-conjugated secondary antibody, and then protein bands were visualized with ECL solution in the dark and quantified by exposure to X-ray films.

BAFF = assay: Quantitative RT-PCR of mRNA in lacrimal and salivary gland tissues, BAFF; type: in vivo, mice; details: N=6
CXCL13 = assay: Quantitative RT-PCR of mRNA in lacrimal and salivary gland tissues, CXCL13; type: in vivo, mice; details: N=6
FLT3L = assay: Quantitative RT-PCR of mRNA in lacrimal and salivary gland tissues, FLT3L; type: in vivo, mice; details: N=6
IL-21 = assay: Quantitative RT-PCR of mRNA in lacrimal and salivary gland tissues, IL-21; type: in vivo, mice; details: N=6
IL-22 = assay: Quantitative RT-PCR of mRNA in lacrimal and salivary gland tissues, IL-22; type: in vivo, mice; details: N=6
anti-SSB/La = assay: Quantification (ELISA) of autoantibody anti-SSB/La in plasma; type: in vivo, mice
Text: as §1

IL-18 = assay: Quantitative RT-PCR of mRNA in lacrimal and salivary gland tissues, IL-18; type: in vivo, mice; details: N=6
IL-13 = assay: Quantitative RT-PCR of mRNA in lacrimal and salivary gland tissues, IL-13; type: in vivo, mice; details: N=6
IL-17A [3] = assay: Quantitative RT-PCR of mRNA in lacrimal and salivary gland tissues, IL-17A; type: in vivo, mice; details: N=6
IFN-α = assay: Quantitative RT-PCR of mRNA in lacrimal and salivary gland tissues, IFN-α; type: in vivo, mice; details: N=6
IL-17A [4] = assay: Quantification (ELISA) of cytokine IL-17A in plasma; type: in vivo, mice; details: versus control, N=3, FIG. 5
Text: as §1

IL-12 = assay: Quantitative RT-PCR of mRNA in lacrimal and salivary gland tissues, IL-12; type: in vivo, mice; details: N=6
[5] = test system: disease model of Sjogren's syndrome (Nfkbiz^−/− or IkB-ξ-deficient mice, C57BL/6); assay: Analysis of inflammatory phenotypes in animals (disease scores); type: in vivo; details: compared to control group, from 2 weeks after administration; N=11; FIG. 7
Text: The degree of inflammation in the animal model was scored according to the following criteria and analyzed.
2: eyes with discharge that were difficult to open
3: periocular skin erosion
4: inflammation reaching perioral skin
5: erosion and loss of hair in whole face.

IL-6 = assay: Quantitative RT-PCR of mRNA in lacrimal and salivary gland tissues, IL-6; type: in vivo, mice; details: N=6
p-AKT = assay: Protein expression in lacrimal and salivary gland tissues (immunoblotting), p-AKT; type: in vivo, mice; details: versus control, N=3, FIG. 3
Protocol: as §2

[6] = IkB-ξ-deficient male mice, 80 mg/kg, n = 3, vehicle = 100.0

SMILES: O=C(NC(Cc1cc(=O)[nH]c2ccccc12)C(=O)OCCN1CCOCC1)c1ccc(Cl)cc1.O=C(O)CC(=O)O (stereo not drawn) [SA001, 2-(morpholin-4-yl)ethyl 2-(4-chlorobenzoylamino)-3-(2-oxo-1,2-dihydroquinolin-4-yl)propionate malonate]
- IL-2 mRNA, decrease compared with control (IL-2; lacrimal glands): 4.5 fold
- IL-2 mRNA, decrease compared with control (IL-2; salivary glands): 1.3 fold
- TNF-α mRNA, decrease compared with control (TNF-α; lacrimal glands): 1.6 fold
- TNF-α mRNA, decrease compared with control (TNF-α; salivary glands): 2.2 fold
- CXCR5 mRNA, decrease compared with control (CXCR5; lacrimal glands): not significant
- CXCR5 mRNA, decrease compared with control (CXCR5; salivary glands): 2.5 fold
- SSA/Ro, No. (%) (anti-SSA/Ro; [6]): 61.0 ± 8.7%
- anti-SSA in plasma, decrease compared to control group (anti-SSA/Ro; N=3, FIG. 5): 40%
- tear production [1]: significantly increased
- interferon-g mRNA, decrease compared with control (interferon-g; lacrimal glands): 1.3 fold
- interferon-g mRNA, decrease compared with control (interferon-g; salivary glands): 1.3 fold
- protein expression of IL-17A in the lacrimal gland and salivary gland tissues (IL-17A [2]): significantly decreased
- BAFF mRNA, decrease compared with control (BAFF; lacrimal glands): 1.6 fold
- BAFF mRNA, decrease compared with control (BAFF; salivary glands): not significant
- CXCL13 mRNA, decrease compared with control (CXCL13; lacrimal glands): 2.5 fold
- CXCL13 mRNA, decrease compared with control (CXCL13; salivary glands): 5 fold
- FLT3L mRNA, decrease compared with control (FLT3L; lacrimal glands): 2.5 fold
- FLT3L mRNA, decrease compared with control (FLT3L; salivary glands): 13 fold
- IL-21 mRNA, decrease compared with control (IL-21; lacrimal glands): 1.6 fold
- IL-21 mRNA, decrease compared with control (IL-21; salivary glands): 20 fold
- IL-22 mRNA, decrease compared with control (IL-22; lacrimal glands): 1.7 fold
- IL-22 mRNA, decrease compared with control (IL-22; salivary glands): 1.6 fold
- SSB/La, No. (%) (anti-SSB/La; [6]): 67.9 ± 12.4%
- anti-SSB in plasma, decrease compared to control group (anti-SSB/La; N=3, FIG. 5): 30%
- IL-18 mRNA, decrease compared with control (IL-18; lacrimal glands): not significant
- IL-18 mRNA, decrease compared with control (IL-18; salivary glands): 1.6 fold
- IL-13 mRNA, decrease compared with control (IL-13; lacrimal glands): 2 fold
- IL-13 mRNA, decrease compared with control (IL-13; salivary glands): 10 fold
- IL-17A mRNA, decrease compared with control (IL-17A [3]; lacrimal glands): 2.8 fold
- IL-17A mRNA, decrease compared with control (IL-17A [3]; salivary glands): 3.3 fold
- IFN-α mRNA, decrease compared with control (IFN-α; lacrimal glands): 1.6 fold
- IFN-α mRNA, decrease compared with control (IFN-α; salivary glands): 40 fold
- IL-17A in plasma (IL-17A [4]): decreased
- IL-12 mRNA, decrease compared with control (IL-12; lacrimal glands): 10 fold
- IL-12 mRNA, decrease compared with control (IL-12; salivary glands): not significant
- onset of the disease (disease score, inflammatory phenotype on five-point scale) [5]: significantly slowed
- IL-6 mRNA, decrease compared with control (IL-6; lacrimal glands): 2 fold
- IL-6 mRNA, decrease compared with control (IL-6; salivary glands): 2.5 fold
- expression of p-AKT (activated form of Akt) (p-AKT): significantly increased
